# Assay: Cytotoxicity against human paclitaxel-resistant OVCA429 cells assessed as cell viability preincubated for 20 mins followed by wash and incubation in drug-free media for 72 hrs by MTT assay
# Format: functional, cell-based
smiles,measurement,value
CC(=O)O[C@H]1C(=O)[C@@]2(C)[C@H]([C@H](OC(=O)c3ccccc3)[C@]3(O)C[C@H](OC(=O)[C@H](OC(=O)CCCSSCCCCCCOP(=O)(OCCCCCCNC(=N)N)OCCOP(=O)(OCCCCCCNC(=N)N)OCCOP(=O)(OCCCCCCNC(=N)N)OCCOP(=O)(OCCCCCCNC(=N)N)OCCOP(=O)(OCCCCCCNC(=N)N)OCCOP(=O)(OCCCCCCNC(=N)N)OCCOP(=O)(OCCCCCCNC(=N)N)OCCOP(=O)(OCCO)OCCCCCCNC(=N)N)[C@@H](NC(=O)c4ccccc4)c4ccccc4)C(C)=C1C3(C)C)[C@]1(OC(C)=O)CO[C@@H]1C[C@@H]2O (stereo partly specified),EC50,1400 nM

# Source: ChEMBL document CHEMBL3872270, “Intelligent substance delivery into cells using cell-penetrating peptides” (Bioorg Med Chem Lett, 2017)
